The test system of series [1] is DNA. Kind of series: Binding affinity to Escherichia coli GlnAp2 labelled with FITC assessed as dissociation constant incubated for 10 mins by fluorescence polarization assay. Format: nucleic-acid assay. A general note: Fluorescence polarisation rises when a labelled molecule tumbles more slowly, as on binding a larger partner.
Series [2] can be described thus: Hemolytic activity in human RBC at 100 uM measured after 1 hrs relative to control. Conditions: red blood cells (erythrocytes), read-out: Activity. Format: toxicity, cell-based, Erythrocyte.
The next series concerns the target dsDNA. Kind of series: Binding affinity to FITC-labelled dsDNA (unknown origin) assessed as dissociation constant incubated for 10 mins by fluorescence polarization assay. Format: nucleic-acid assay.
A short description of series [3]: Toxicity in Galleria mellonella larvae assessed as survivability at 10 mg/kg administered intra-hemocoelicly and measured after 24 hrs. In kind it is organism-based. Conditions: in vivo, other.
Series [4] relates to DNA. Kind of series: Inhibition of RpoN-mediated GlnAp2 transcription in Escherichia coli XL-1 Blue expressing GFP assessed as decrease in GFP levels at 10 uM incubated for 4 hrs under minimal nitrogen media by fluorescence based assay relative to control. In kind it is nucleic-acid assay.
The test system of a further series is Pseudomonas aeruginosa. Kind of series: Antibacterial activity against Pseudomonas aeruginosa assessed as inhibition of cell growth upto 32 ug/ml incubated overnight by microtiter broth dilution assay. Format: functional. Conditions: dose <= 32 µg/ml. For orientation: In broth dilution the organism is exposed to a series of concentrations in liquid medium.

Bridge positions count the residues as written; N and C are the ends. Square brackets hold non-standard residues; d marks the D form. Peptide text beside a SMILES is read from it. S5 = C=CCCC[C@](C)(N)C(=O)O; Nle = CCCC[C@H](N)C(=O)O; βAla = NCCC(=O)O Where only a bound is given, the exact number is not on record here.

We go through one compound from ChEMBL document CHEMBL5107971, “RpoN-Based stapled peptides with improved DNA binding suppress Pseudomonas aeruginosa virulence” (RSC Med Chem, 2022).

As a reminder, the Kd is the equilibrium constant for the complex coming apart. In general, inhibition refers to the drop in the measured response relative to a control, in per cent. The MIC is the lowest concentration that inhibits growth of the organism.

`CCCC[C@H](NC(=O)[C@H](CCC(=O)O)NC(=O)[C@H](CCCNC(=N)N)NC(=O)[C@H](Cc1ccc(O)cc1)NC(=O)[C@H](CCCCN)NC(=O)[C@H](C)NC(=O)[C@]1(C)CCC/C=C\CCC[C@](C)(NC(=O)[C@@H](NC(=O)[C@H](CCCCN)NC(=O)[C@H](Cc2ccccc2)NC(=O)CCNC(C)=O)C(C)C)C(=O)N[C@@H](CCCNC(=N)N)C(=O)N[C@@H](CCCNC(=N)N)C(=O)N[C@@H]([C@@H](C)O)C(=O)N1)C(=O)N[C@@H](CC(C)C)C(N)=O` (Ac-[βAla]FKV[S5]RRT[S5]AKYRE[Nle]L-NH2; staple (Z) 5-9): the Kd with DNA [1] was 1140 nM; on dsDNA it was 834 nM. Moreover, the hemolysis at 1 h, 100 µM in series [2] turned out to be 6.6%. Further, the Activity result in series [3] is recorded as “Non-Toxic”. For the same compound, in the series on DNA [4], the inhibition was determined as 75%. Besides, the MIC in the series with Pseudomonas aeruginosa is greater than 32 µg/mL.
